According to ChEMBL document CHEMBL5647694, “Novel orally bioavailable EZH1/2 dual inhibitors with greater antitumor efficacy than an EZH2 selective inhibitor” (Cancer Sci, 2017):

Assays:
[1] = molecular target: Muscle, skeletal receptor tyrosine-protein kinase (Homo sapiens) (UniProt O15146); assay: Inhibition of N-terminal GST-fused human MUSK catalytic domain (527 to 869 residues) expressed in baculovirus-infected Sf21 cells using CSKtide as substrate at 1 uM in presence of ATP by Mobility shift assay
[2] = molecular target: Tyrosine-protein kinase FRK (Homo sapiens) (UniProt P42685); assay: Inhibition of N-terminal GST-fused human FRK catalytic domain (223 to 505 residues) expressed in baculovirus-infected Sf21 cells using Srctide as substrate at 1 uM in presence of ATP by Mobility shift assay
[3] = molecular target: Tyrosine-protein kinase ABL1 (Homo sapiens) (UniProt P00519); assay: Inhibition of N-terminal His-tagged wild type human ABL (2 to 1130 residues) expressed in baculovirus-infected Sf21 cells using ABLtide as substrate at 1 uM in presence of ATP by Mobility shift assay
[4] = molecular target: Serine/threonine-protein kinase pim-1 (Homo sapiens) (UniProt P11309); assay: Inhibition of N-terminal His-tagged full length human PIM1 (1 to 313 residues) expressed in baculovirus expression system using S6K2 peptide as substrate at 1 uM in presence of ATP by Mobility shift assay
[5] = molecular target: Tyrosine-protein kinase receptor TYRO3 (Homo sapiens) (UniProt Q06418); assay: Inhibition of N-terminal GST-tagged human TYRO3 cytoplasmic domain (453 to 890 residues) expressed in baculovirus-infected Sf21 cells using CSKtide as substrate at 1 uM in presence of ATP by Mobility shift assay
[6] = molecular target: Homeodomain-interacting protein kinase 2 (Homo sapiens) (UniProt Q9H2X6); assay: Inhibition of N-terminal GST-fused full length human HIPK2 (1 to 1198 residues) expressed in baculovirus expression system using DYRKtide-F as substrate at 1 uM in presence of ATP by Mobility shift assay
[7] = molecular target: Homeodomain-interacting protein kinase 3 (Homo sapiens) (UniProt Q9H422); assay: Inhibition of N-terminal GST-fused human HIPK3 catalytic domain (161 to 562 residues) expressed in baculovirus expression system using DYRKtide-F as substrate at 1 uM in presence of ATP by Mobility shift assay
[8] = molecular target: Fibroblast growth factor receptor 4 (Homo sapiens) (UniProt P22455); assay: Inhibition of N-terminal GST-fused human FGFR4 cytoplasmic domain (460 to 802 residues) expressed in baculovirus-infected Sf21 cells using CSKtide as substrate at 1 uM in presence of ATP by Mobility shift assay
[9] = molecular target: RAC-gamma serine/threonine-protein kinase (Homo sapiens) (UniProt Q9Y243); assay: Inhibition of N-terminal GST-tagged human AKT3 catalytic domain (108 to 479 residues) co-expressed with His-tagged PDK1 (1 to 556 residues) in baculovirus-infected Sf21 cells using Crosstide as substrate at 1 uM in presence of ATP by Mobility shift assay
[10] = molecular target: Ribosomal protein S6 kinase alpha-3 (Homo sapiens) (UniProt P51812); assay: Inhibition of N-terminal GST-fused human full length RSK2 (1 to 740 residues) expressed in baculovirus expression system using S6K peptide(N-FL) as substrate at 1 uM in presence of ATP by Mobility shift assay
[11] = molecular target: Cyclin-dependent kinase 1/cyclin B1 (Homo sapiens) (UniProt P06493+P14635); assay: Inhibition of N-terminal GST-fused full length human CDC2 (1 to 297 residues)/N-terminal GST fused human CyclinB1 (1 to 433 residues) expressed in baculovirus-infected Sf21 cells using Modified Histone H1 as substrate at 1 uM in presence of ATP by Mobility shift assay
[12] = molecular target: Tyrosine-protein kinase ZAP-70 (Homo sapiens) (UniProt P43403); assay: Inhibition of N-terminal GST-tagged full length human ZAP70 (1 to 619 residues) expressed in baculovirus-infected Sf21 cells using Blk/Lyntide as substrate at 1 uM in presence of ATP by Mobility shift assay
[13] = molecular target: Serine/threonine-protein kinase TBK1 (Homo sapiens) (UniProt Q9UHD2); assay: Inhibition of N-terminal GST-fused full length human TBK1 (1 to 729 residues) expressed in baculovirus expression system using CKtide as substrate at 1 uM in presence of ATP by Mobility shift assay
[14] = molecular target: Ribosomal protein S6 kinase alpha-5 (Homo sapiens) (UniProt O75582); assay: Inhibition of N-terminal GST-fused full length human MSK1 (1 to 802 residues) expressed in baculovirus expression system using Crosstide as substrate at 1 uM in presence of ATP by Mobility shift assay
[15] = molecular target: Ephrin type-A receptor 3 (Homo sapiens) (UniProt P29320); assay: Inhibition of N-terminal GST-fused human EPHA3 cytoplasmic domain (579 to 983 residues) expressed in baculovirus-infected Sf21 cells using Blk/Lyntide as substrate at 1 uM in presence of ATP by Mobility shift assay
[16] = molecular target: Serine/threonine-protein kinase 38 (Homo sapiens) (UniProt Q15208); assay: Inhibition of N-terminal GST-fused full length human NDR1 (1 to 465 residues) expressed in baculovirus expression system using SGKtide as substrate at 1 uM in presence of ATP by Mobility shift assay
[17] = molecular target: Mitogen-activated protein kinase 13 (Homo sapiens) (UniProt O15264); assay: Inhibition of N-terminal GST-fused full length human p38delta (1 to 365 residues) expressed in Escherichia coli expression system using Modified Erktide as substrate at 1 uM in presence of ATP by Mobility shift assay
[18] = molecular target: Tyrosine-protein kinase JAK1 (Homo sapiens) (UniProt P23458); assay: Inhibition of N-terminal GST-fused human JAK1 catalytic domain (850 to 1154 residues) expressed in baculovirus-infected Sf21 cells using JAK1 substrate peptide at 1 uM in presence of ATP by Mobility shift assay
Homo sapiens = species on record: Homo sapiens; assay: Competitive inhibition of PRC2-EZH2 (unknown origin) assessed as intensity of SAM signal using SAM as substrate at 800 uM by STD-NMR analysis (reference value: 100%); design: scale not given: the % may be the effect or the level left
[19] = molecular target: Serine/threonine-protein kinase pim-2 (Homo sapiens) (UniProt Q9P1W9); assay: Inhibition of N-terminal GST-tagged full length human PIM2 (1 to 311 residues) expressed in baculovirus expression system using S6K2 peptide as substrate at 1 uM in presence of ATP by Mobility shift assay
[20] = molecular target: Serine/threonine-protein kinase BRSK2 (Homo sapiens) (UniProt Q8IWQ3); assay: Inhibition of N-terminal GST-tagged full length human BRSK2 (1 to 674 residues) expressed in baculovirus-infected Sf21 cells using CHKtide as substrate at 1 uM in presence of ATP by Mobility shift assay
[21] = molecular target: Serine/threonine-protein kinase 24 (Homo sapiens) (UniProt Q9Y6E0); assay: Inhibition of N-terminal GST-fused full length human MST3 (1 to 431 residues) expressed in baculovirus expression system using Moesin-derived peptide as substrate at 1 uM in presence of ATP by Mobility shift assay

`Cc1cc(C)c(CNC(=O)c2cc(Cl)c3c(c2C)O[C@@](C)([C@H]2CC[C@H](N(C)C)CC2)O3)c(=O)[nH]1` [VALEMETOSTAT] was tested. Which inhibition [1] did it give?
The inhibition was -5.5%.

And the inhibition [2]?
Its inhibition is -4.5%.

What about the inhibition [3] of the same compound?
Its inhibition is -8%.

What about the inhibition [4] of the same compound?
Its inhibition is 17.1%.

What about the inhibition [5] of the same compound?
Its inhibition is -2.6%.

And the inhibition [6]?
The inhibition was 3.1%.

And the inhibition [7]?
Its inhibition is 1.4%.

And the inhibition [8]?
Its inhibition is -5.6%.

And the inhibition [9]?
The inhibition was -5.3%.

And the inhibition [10]?
The inhibition was -0.5%.

And the inhibition [11]?
Its inhibition is 8.7%.

And the inhibition [12]?
The inhibition was -5.4%.

What about the inhibition [13] of the same compound?
Its inhibition is -2.6%.

What about the inhibition [14] of the same compound?
Its inhibition is 0.4%.

And the inhibition [15]?
Its inhibition is -4.8%.

What about the inhibition [16] of the same compound?
Its inhibition is -0.5%.

And the inhibition [17]?
Its inhibition is -6.9%.

What about the inhibition [18] of the same compound?
Its inhibition is -3.3%.

What about the Activity (Homo sapiens) of the same compound?
Its Activity is 62%.

And the inhibition [19]?
Its inhibition is -1.4%.

And the inhibition [20]?
The inhibition was 11.2%.

What about the inhibition [21] of the same compound?
The inhibition was -1.9%.

How did the inhibition [1] turn out when `Cc1cc(C)c(CNC(=O)c2cc(Br)c3c(c2C)O[C@@](C)([C@H]2CC[C@H](N(C)C)CC2)O3)c(=O)[nH]1` was run?
Its inhibition is -5.1%.

And the inhibition [2]?
The inhibition was -3.6%.

What about the inhibition [3] of the same compound?
Its inhibition is -5.7%.

And the inhibition [4]?
Its inhibition is 1.3%.

What about the inhibition [5] of the same compound?
The inhibition was 0.9%.

And the inhibition [6]?
Its inhibition is -1.4%.

And the inhibition [7]?
Its inhibition is -1.8%.

And the inhibition [8]?
Its inhibition is -3.7%.

And the inhibition [9]?
The inhibition was -6.2%.

And the inhibition [10]?
The inhibition was -4%.

And the inhibition [11]?
The inhibition was 1.8%.

What about the inhibition [12] of the same compound?
The inhibition was -6.2%.

And the inhibition [13]?
Its inhibition is -4.6%.

And the inhibition [14]?
Its inhibition is 1.4%.

What about the inhibition [15] of the same compound?
The inhibition was -8.6%.

What about the inhibition [16] of the same compound?
The inhibition was -2.6%.

What about the inhibition [17] of the same compound?
The inhibition was -4.7%.

And the inhibition [18]?
Its inhibition is -3.3%.

And the Activity (Homo sapiens)?
Its Activity is 59%.

What about the inhibition [19] of the same compound?
Its inhibition is -3.9%.

What about the inhibition [20] of the same compound?
Its inhibition is 6.6%.

What about the inhibition [21] of the same compound?
Its inhibition is -6.2%.
